Assays:
HeLa cells [1] = experiment: Cellular uptake of Dox-loaded nanoparticles, confocal microscopy; assay type: cell-based; settings: 1 μM, 16 h (results text; method: 2 μM, 6 h)
Description: The cellular uptake of Dox-loaded RH-(GLFG)3 nanoparticles in HeLa cells was analyzed using confocal microscopy. HeLa cells were seeded to 1.0 × 10^4 cells/well in an 8-well confocal plate and incubated for 24 h. After incubation, the cells were treated using Free Dox, DD-Dox, and LL-Dox at a final concentration of 2 μM and incubated for 6 h. The nuclei of the cells were stained with 20 μM Hoechst 33324 for 15 min. The prepared cells were observed using confocal microscopy. To understand cellular uptake in tissue, we examined 3D spheroids of HeLa cells. For the formulation of the 3D spheroids, 1.0 × 10^4 cells were seeded in a round shaped 96-well plate coated with 1% agarose and incubated for 3 days. After incubation, the cells formed a globular shaped 3D tissue. The prepared 3D spheroids were treated using Free Dox, DD-Dox, and LL-Dox at a final concentration of 1 μM. The 3D spheroid medium was changed every 2 days for the tissue growth. After 7 days, the 3D spheroids were observed using confocal microscopy.

[2] = system: SW480 cells in zebrafish larvae; experiment: In vivo anticancer capability in zebrafish cancer model; settings: micro-injection, observed 2 days after injection
Description: To examine the anticancer activity of the Dox-loaded RH-(GLFG)3 nanoparticles in vivo, we generated zebrafish cancer models using the SW480 cell line. Briefly, zebrafish eggs were incubated in a fish incubator for 2 days and dechorionated. The SW480 cells were stained using cell fluorescence tracker (cell tracker green CMFDA) for 30 min in a cell culture incubator. The labeled cells were then harvested using trypsin-EDTA and washed twice with PBS containing 10% FBS. The labeled cells were then injected into zebrafish larvae by micro-injection. The larvae were split in 96-well microplates containing TAP-water. After 2 days of incubation, Free Dox and Dox-loaded RH-(GLFG)3 nanoparticles (LL-Dox and DD-Dox) were injected into zebrafish larvae by micro-injection. After 2 days of incubation, the larvae were anesthetized using 0.04% tricaine and observed under a fluorescence microscope (Leica DMi8, Wetzlar, Germany).

[3] = Dynamic light scattering (DLS) size of peptide nanoparticles; assay type: physicochemical; settings: empty peptide nanoparticles 0.5 mg/mL, Tables S1 and S2, mean ± SEM (n=3)
Description: (§1) The size of the peptide nanoparticles at concentrations of 0.5 mg/mL was analyzed by dynamic laser light scattering (DLS) with ELS-Z2 (Photal, Otsuka Electronics Co., Ltd., Otsuka, Japan) and a Nano-ZS (Malvern Instruments Ltd., London, UK). The ξ-potential of the peptide nanoparticles was measured using a Nano-ZS. To confirm their stability, the LL and DD nanoparticles were monitored using a DLS instrument every 5 days for 30 days. The morphology of the LL peptide nanoparticles was measured using a field emission scanning electron microscope (FE-SEM). Thereafter, the dried samples of peptide nanoparticles were coated with osmium and analyzed by FE-SEM (Hitachi, Tokyo, Japan) under a 5–10 kV acceleration voltage. The self-assembled structure of the peptide nanoparticles was analyzed using CD spectroscopy (J-1000, Jasco, Hachioji, Japan). The LL and DD peptide nanoparticle solutions were measured in a quartz cuvette at wavelengths of 190 to 260 nm.
(§2) Doxorubicin (Dox) was encapsulated in the RH-(GFLG)3 peptide nanoparticles to evaluate their potential as drug delivery carriers. […] The prepared Dox-loaded RH-(GFLG)3 nanoparticles (LL-Dox, LD-Dox, DL-Dox, and DD-Dox) were stored at 4 °C, and their size diameter and ξ-potential were measured using DLS and zeta instruments of Nano ZS90 (Malvern, Worcestershire, UK) to confirm the formulation of the nanostructure.

[4] = ξ-potential of peptide nanoparticles (Nano-ZS); assay type: physicochemical; settings: empty peptide nanoparticles; Tables S1 and S2; mean ± SEM (n=3); in mV (unit assumed)
Description: as §1, §2

[5] = FE-SEM morphology of peptide nanoparticles; assay type: physicochemical; settings: dried samples, osmium coated, 5–10 kV
Description: as §1

[6] = Storage stability of nanoparticles monitored by DLS; assay type: physicochemical; settings: DLS every 5 days for 30 days at 4 °C; mean ± SEM (n = 3)
Description: as §1

[7] = Critical aggregation concentration with Nile Red probe; assay type: physicochemical
Description: The critical aggregation concentration (CAC) value of the RH-(GFLG)3 nanoparticles was analyzed using the hydrophobic probe Nile Red. Briefly, the peptide nanoparticles were prepared at various concentrations ranging from 0.001 to 0.3 mg/mL to make a final volume of 1 mL. Then, the prepared nanoparticle solutions were mixed with 5 μL of 40 μM Nile Red solution in ethanol to a final concentration of 0.2 μM. The samples were dried to remove the ethanol using nitrogen gas stream and incubated for 1 h at room temperature (25 °C). After incubation, prepared samples were measured using fluorescence spectroscopy (PerkinElmer, Waltham, MA, USA) at an excitation wavelength of 515 nm and emission wavelengths of 550–750 nm. The CAC of the peptide nanoparticles was analyzed by fluorescence intensity at 650 nm.

HeLa cells [8] = experiment: Cytotoxicity of peptide nanoparticles, WST-1 / MTT assay; assay type: cell-based; settings: 24 h, highest concentration of 0.2 μg/μL, mean ± SEM (n = 3)
Description: (§3) The cytotoxicity of the RH-(GFLG)3 nanoparticles was examined using WST-1, LDH, and hemolysis assays. For the WST-1 assay, the HeLa cells were seeded to 1.0 × 10^4 cells/well in a 96-well microplate and incubated for 24 h. PEI 25kD and LL, LD, DL, and DD were prepared at various concentrations (0.025 to 0.2 μg/μL). PEI 25kD, a cationic polymer, was introduced as a positive control. After 24 h of incubation, 10 µL WST-1 was added to each well and incubated for 2 h. WST-1 formazan was measured using a VERASmax microplate reader (Molecular Devices, LLC, Sunnyvale, CA, USA) at an absorbance of 450 nm. For the LDH assay, 20% Tween-20 treated cells were examined as maximum LDH activated control to calculate the LDH activity (%) of samples. After 24 h incubation, 10 μL of the supernatant of each sample was collected and added to a working reagent containing 0.2 mM NADH and 2.5 mM sodium pyruvate in a 96-well microplate and incubated for 45 min at 37 °C. Finally, the LDH activity was quantified by measuring the absorbance at 490 nm using a microplate reader.

HeLa cells [9] = experiment: LDH assay (membrane damage); assay type: cell-based; settings: 24 h, 0.025–0.2 μg/μL, relative to 20% Tween-20 control
Description: as §3

human RBCs = experiment: Hemolysis assay; assay type: cell-based; settings: 0.1 and 0.2 μg/μL, 2 h at 37 °C, absorbance 450 nm, Triton X-100 0.2% as maximum
Description: The hemolysis of LL, LD, DL, and DD nanoparticles was investigated using human blood cells. PEI 25kD was introduced as a positive control. Briefly, fresh human blood was obtained from healthy volunteers. Coagulation of human blood was prevented using ethylenediaminetetraacetic acid (EDTA). The human blood was centrifuged at 5000 rpm for 5 min to separate the red blood cells (RBCs) from the serum. The isolated RBCs were washed twice using PBS and diluted to 2.0 × 10^8 cells/mL in PBS. To evaluate the hemolytic activity, Triton X-100 0.2% treated samples were used as the maximum hemolytic activity control. A 0.25 mL volume of the prepared RBCs was mixed with 0.25 mL of each sample (final concentration of 0.1 μg/μL and 0.2 μg/μL, respectively). The mixed samples were incubated for 2 h at 37 °C. After incubation, the samples were centrifuged at 5000 rpm for 5 min, and […] of the supernatant of each sample was collected. The supernatant was diluted 10-fold using PBS to a final volume of 100 μL. The prepared supernatant solution was added to a 96-well microplate and measured at 450 nm using a VERSAmax microplate reader (Molecular Devices, San Jose, CA, USA).

HeLa cells [10] = experiment: Cellular uptake of Nile Red-tagged nanoparticles (confocal microscopy, FACS); assay type: cell-based; settings: Nile Red-tagged nanoparticles 0.2 mg/mL, 6 h confocal microscopy (16 h FACS)
Description: The cellular uptake ability of the peptide nanoparticle was analyzed using confocal microscopy (Zeiss International, Oberkochen, Germany) and fluorescence-activated cell sorting (FACS) (BD Biosciences, San Jose, CA). For confocal microscopy assays, 1.0 × 10^4 cells/well were seeded in an 8-well confocal plate and incubated for 24 h. Nile Red-tagged LL, DL, DL, and DD peptide nanoparticles were treated to a final concentration of 0.2 mg/mL, and the cells were incubated for 6 h. After incubation, the cell nuclei were stained with 20 μM Hoechst 33324 for 15 min. The prepared cells were observed using confocal microscopy. In the FACS assay, 1.0 × 10^6 cells/well were seeded in 6-well microplate and incubated for 24 h. After incubation, the Nile Red-tagged peptide nanoparticles were treated to a final concentration of 0.2 mg/mL, and cells were incubated for 16 h. After incubation, the cells were washed twice using DPBS and harvested using trypsin-EDTA. The cells were collected by centrifugation (1500 rpm, 3 min) and resuspended in 500 μL of DPBS. The prepared samples were transferred to a FACS tube and analyzed using FACS.

cathepsin B = biological target: T1, cathepsin B (Homo sapiens, UniProt P07858); experiment: Enzyme-responsiveness test with cathepsin B, MALDI-TOF MS; assay type: in vitro ADME; settings: 0.02 μM cathepsin B in activation buffer, 37 °C, 6 h; versus control without enzyme
T1 construct: purchased Sigma-Aldrich (Seoul, Korea)
Description: The enzyme-responsive ability of RH-(GFLG)3 was analyzed using matrix assisted laser mass spectroscopy (MALDI-TOF, Voyager TOF Mass Spectrometer, Applied Biosystems Inc., Carlsbad, CA, USA). The LL, LD, DL, and DD peptides were treated with 0.02 μM of the enzyme cathepsin B in an activation buffer at 37 °C for 6 h. To compare enzyme-responsive ability, control groups without enzyme were treated identically in an activation buffer at 37 °C for 6 h. The prepared peptides were measured using MALDI-TOF (Voyager TOF Mass Spectrometer) in a α-cyano-4-hydroxycinnamic acid (CHCA) matrix.

HeLa cells [11] = experiment: Anticancer effect, MTT assay in HeLa cells; assay type: cell-based; settings: HeLa, 24, 48 and 72 h, peptide without Dox
Description: (§4) The anticancer activity of Dox-loaded peptide nanoparticles in HeLa and SW480 cells was determined with an MTT assay. Cells were seeded to 1.0 × 10^4 cells/well in a 96-well microplate and incubated for 24 h. After incubation, the cells were treated using Free Dox and Dox-loaded RH-(GLFG)3 nanoparticles to a final concentration of 0.25–2 μM and incubated for 24–72 h. After incubation, the prepared samples were analyzed following the method described above. To understand the anticancer effect in tissue, 3D spheroids of HeLa cells were prepared as described above. The prepared 3D spheroids were treated with 1 μM Free Dox, DD-Dox, and LL-Dox and incubated for 1–7 days. The morphology of the 3D spheroids was observed using an objective microscope every day. After 7 days of incubation, the viability of the spheroids was analyzed using an MTT assay. The spheroids were added to the MTT solution (2 mg/mL in DPBS) and incubated for 4 h. The supernatant was removed, and 150 μL of DMSO was added to each sample. The prepared samples were measured using a micro reader (Molecular Devices, San Jose, CA, USA) at an absorbance of 570 nm.

SW480 cells = experiment: Anticancer effect, MTT assay in SW480 cells; assay type: cell-based; settings: SW480, 24, 48 and 72 h, peptide without Dox
Description: as §4

Molecule	cellular uptake ability of Dox (HeLa cells [1])	anticancer effect on cell tracker labelled SW480 cells (fluorescence) [2]	Hydrodynamic diameter [3]	Polydispersity index (PDI) [3]	Ξ-Potential [4]	size of globular nanostructure in FE-SEM images [5]	nanoscale diameter during storage [6]	critical aggregation concentration (CAC) ([7]; Nile Red 0.2 μM, peptide 0.001–0.3 mg/mL, 1 h at 25 °C, fluorescence ex 515 nm, intensity at 650 nm)	CAC (printed in Figure 2E) ([7]; Nile Red probe, fluorescence at 650 nm)	cytotoxicity (cell viability) (HeLa cells [8])	LDH release (HeLa cells [9])	hemolysis (human RBCs)	cellular uptake ability (HeLa cells [10])	degradation by cathepsin B (peak at 1433 m/z in MALDI-TOF mass spectrum) (cathepsin B)	cytotoxicity of peptide control groups (HeLa cells [11])	cytotoxicity of peptide control groups (SW480 cells)
COc1cccc2c1C(=O)c1c(O)c3c(c(O)c1C2=O)C[C@@](O)(C(=O)CO)C[C@@H]3O[C@H]1C[C@H](N)[C@H](O)[C@H](C)O1 [Free Dox, doxorubicin]	low cellular uptake ability	low anticancer effect	–	–	–	–	–	–	–	–	–	–	–	–	–	–
Arg-His-(Gly-Phe-Lue-Gly)3 [LL]	–	–	118 ± 7.7 nm	0.245 ± 0.010	30.1 ± 0.4	smaller than 100 nm	less than 200 nm	around 0.02 mg/mL	0.02 µg/µL	negligible cytotoxicity	negligible LDH release	negligible hemolysis	higher uptake	no peak at 1433 m/z	negligible cytotoxicity	negligible cytotoxicity

Source: publication PMC8779831, “Enzyme-Responsive Amphiphilic Peptide Nanoparticles for Biocompatible and Efficient Drug Delivery” (Pharmaceutics, 2022)
